How the values were obtained:
Septoria tritici [1] = experiment: Example C: in vivo preventive test on Septoria tritici (leaf spot on wheat); details: Zymoseptoria tritici, 576 h; 500 ppm of active ingredient; wheat plants, preventive spray; evaluated 24 days after inoculation; read-out: efficacy
Experimental: Example C: In Vivo Preventive Test on Septoria Tritici (Leaf Spot on Wheat)
(§1) The active ingredients were made soluble and homogenized in a mixture of Dimethyl sulfoxide/Acetone/Tween® 80 and then diluted in water to the desired concentration.
(§2) The young plants of wheat were treated by spraying the active ingredient prepared as described above. Control plants were treated only with an aqueous solution of Acetone/Dimethyl sulfoxide/Tween® 80.
After 24 hours, the plants were contaminated by spraying the leaves with an aqueous suspension of Septoria tritici spores. The contaminated wheat plants were incubated for 72 hours at 18° C. and at 100% relative humidity and then for 21 days at 20° C. and at 90% relative humidity.
The test was evaluated 24 days after the inoculation. 0% means an efficacy which corresponds to that of the control plants while an efficacy of 100% means that no disease was observed.

[2] = Log P by HPLC on reversed phase columns (EEC directive 79/831 Annex V.A8; methods [a], [b], [c]); format: physicochemical
Outline: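 Reversed-phase HPLC with LC-UV detection, 10→95% acetonitrile linear gradient; aqueous eluent 0.1% formic acid [a], 0.001 M ammonium acetate, neutral [b], or 0.1% phosphoric acid [c]. Calibrated against C3–C16 alkan-2-ones of known Log P by retention-time linear interpolation; multiple values within a method separated by "+".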

Sphaerotheca fuliginea [3] = experiment: Example D: in vivo preventive test on Sphaerotheca fuliginea (powdery mildew on cucurbits); details: Podosphaera fuliginea, 360 h, read-out: efficacy
Experimental: Example D: In Vivo Preventive Test on Sphaerotheca Fuliginea (Powdery Mildew on Cucurbits)
as §1
The young plants of gherkin were treated by spraying the active ingredient prepared as described above. Control plants were treated only with an aqueous solution of Acetone/Dimethyl sulfoxide/Tween® 80.
After 24 hours, the plants were contaminated by spraying the leaves with an aqueous suspension of Sphaerotheca fuliginea spores. The contaminated gherkin plants were incubated for 72 hours at 18° C. and at 100% relative humidity and then for 12 days at 20° C. and at 70-80% relative humidity.
The test was evaluated 15 days after the inoculation. 0% means an efficacy which corresponds to that of the control plants while an efficacy of 100% means that no disease was observed.

Uromyces appendiculatus [4] = experiment: Example E: in vivo preventive test on Uromyces appendiculatus (bean rust); details: 264 h, 500 ppm of active ingredient, bean plants, preventive spray, evaluated 11 days after inoculation, read-out: efficacy
Experimental: Example E: In Vivo Preventive Test on Uromyces Appendiculatus (Bean Rust)
as §1
The young plants of bean were treated by spraying the active ingredient prepared as described above. Control plants were treated only with an aqueous solution of Acetone/Dimethyl sulfoxide/Tween® 80.
After 24 hours, the plants were contaminated by spraying the leaves with an aqueous suspension of Uromyces appendiculatus spores. The contaminated bean plants were incubated for 24 hours at 20° C. and at 100% relative humidity and then for 10 days at 20° C. and at 70-80% relative humidity.
(§3) The test was evaluated 11 days after the inoculation. 0% means an efficacy which corresponds to that of the control plants while an efficacy of 100% means that no disease was observed.

Puccinia recondita [5] = experiment: Example B: in vivo preventive test on Puccinia recondita (brown rust on wheat); details: 264 h, 500 ppm of active ingredient, wheat plants, preventive spray, evaluated 11 days after inoculation, read-out: efficacy
Experimental: Example B: In Vivo Preventive Test on Puccinia Recondita (Brown Rust on Wheat)
as §1, §2
After 24 hours, the plants were contaminated by spraying the leaves with an aqueous suspension of Puccinia recondita spores. The contaminated wheat plants were incubated for 24 hours at 20° C. and at 100% relative humidity and then for 10 days at 20° C. and at 70-80% relative humidity.
as §3

Uromyces appendiculatus [6] = experiment: Example IX-D: in vivo preventive test on Uromyces appendiculatus (bean rust); details: 264 h, compounds of formula IX, 500 ppm of active ingredient, bean plants, preventive spray, evaluated 11 days after inoculation, read-out: efficacy
Outline: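 Young bean plants sprayed with compound (DMSO/acetone/Tween 80 in water), then inoculated 24 h later with Uromyces appendiculatus spores. Kept 24 h at 20° C, 100% RH, then 10 days at 20° C, 70–80% RH; efficacy scored 11 days post-inoculation, 0% = untreated control, 100% = no disease.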

Puccinia recondita [7] = experiment: Example IX-A: in vivo preventive test on Puccinia recondita (brown rust on wheat); details: 264 h, compounds of formula IX, 500 ppm of active ingredient, wheat plants, preventive spray, evaluated 11 days after inoculation, read-out: efficacy
Outline: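 Young wheat plants sprayed with compound in DMSO/acetone/Tween 80 diluted in water, inoculated 24 h later with spore suspension. Incubated 24 h at 20 °C, 100% RH, then 10 days at 20 °C, 70-80% RH. Efficacy scored 11 days post-inoculation, 0% equal to solvent-treated controls, 100% no disease.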

Septoria tritici [8] = experiment: Example IX-B: in vivo preventive test on Septoria tritici (leaf spot on wheat); details: Zymoseptoria tritici, 576 h; compounds of formula IX; 500 ppm of active ingredient; wheat plants, preventive spray; evaluated 24 days after inoculation; read-out: efficacy
Outline: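 Wheat seedlings sprayed preventively with compound dissolved in DMSO/acetone/Tween 80 and diluted in water; solvent-only controls. Spore suspension of S. tritici sprayed 24 h later; 72 h at 18 °C/100% RH, then 21 days at 20 °C/90% RH. Efficacy scored 24 days post-inoculation, 0% = control, 100% = no disease.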

Sphaerotheca fuliginea [9] = experiment: Example IX-C: in vivo preventive test on Sphaerotheca fuliginea (powdery mildew on cucurbits); details: Podosphaera fuliginea, 360 h; compounds of formula IX; 500 ppm of active ingredient; gherkin plants, preventive spray; evaluated 15 days after inoculation; read-out: efficacy
Outline: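 Young gherkin plants sprayed with compound in DMSO/acetone/Tween 80 diluted in water, then inoculated 24 h later with Sphaerotheca fuliginea spores. Kept 72 h at 18 °C/100% RH, then 12 days at 20 °C/70-80% RH; efficacy scored 15 days post-inoculation, 0% = control, 100% = no disease.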

[10] = 500 ppm of active ingredient, gherkin plants, preventive spray, evaluated 15 days after inoculation
[11] = reversed phase HPLC column, HPLC on reversed phase columns, method [a]
[12] = reversed phase HPLC column, method [a]: LC-UV, acidic range, 0.1% formic acid in water and acetonitrile as eluent (linear gradient from 10% to 95% acetonitrile)

Row | Compound | chromatographic logP [2, 12] | pest or weed control at 500 ppm (Uromyces appendiculatus [6]) [%] | pest or weed control at 500 ppm (Puccinia recondita [7]) [%] | pest or weed control at 500 ppm (Septoria tritici [8]) [%] | pest or weed control at 500 ppm (Sphaerotheca fuliginea [9]) [%] | also measured
1 | C[Si](C)(C)C#Cc1ccc(C(O)(Cn2cncc2C#N)C2(F)CC2)c(Cl)c1 (stereo not drawn) [I-394, 3-[2-[2-chloro-4-(2-trimethylsilylethynyl)phenyl]-2-(1-fluorocyclopropyl)-2-hydroxy-ethyl]imidazole-4-carbonitrile] | – | – | – | – | – | pest or weed control at 500 ppm (Septoria tritici [1]): 90 to 100%; chromatographic logP ([2]; HPLC on reversed phase columns, method [a]): 4.06; pest or weed control at 500 ppm (Sphaerotheca fuliginea [3]; [10]): 90 to 100%
2 | CCC(O)(Cn1cncc1C#N)c1ccc(F)cc1 (stereo not drawn) [I-245, 3-[2-(4-fluorophenyl)-2-hydroxy-butyl]imidazole-4-carbonitrile] | – | – | – | – | – | pest or weed control at 500 ppm (Septoria tritici [1]): 90 to 100%; chromatographic logP [2, 11]: 1.57; pest or weed control at 500 ppm (Sphaerotheca fuliginea [3]; [10]): 90 to 100%
3 | N#Cc1cncn1CC(O)(C#CC1CCCCC1)C1(Cl)CC1 (stereo not drawn) [I-542, 1-[2-(1-chlorocyclopropyl)-4-cyclohexyl-2-hydroxybut-3-yn-1-yl]-1H-imidazole-5-carbonitrile] | – | – | – | – | – | chromatographic logP ([2]; HPLC on reversed phase column, method [a]): 2.96; pest or weed control at 500 ppm (Sphaerotheca fuliginea [3]): 80 to 89%
4 | CC(=O)OC(Cn1cncc1F)c1cnc(Oc2ccc(Cl)cc2)cc1C(F)(F)F (stereo not drawn) [I-133, [1-[6-(4-chlorophenoxy)-4-(trifluoromethyl)-3-pyridyl]-2-(5-fluoroimidazol-1-yl)ethyl]acetate] | – | – | – | – | – | pest or weed control at 500 ppm (Septoria tritici [1]): 90 to 100%; pest or weed control at 500 ppm (Uromyces appendiculatus [4]): 90 to 100%; pest or weed control at 500 ppm (Puccinia recondita [5]): 90 to 100%; pest or weed control at 500 ppm (Sphaerotheca fuliginea [3]; [10]): 90 to 100%
5 | COC(Cn1cncc1F)c1cnc(Oc2ccc(Cl)cc2)cc1C(F)(F)F (stereo not drawn) [I-131, 2-(4-chlorophenoxy)-5-[2-(5-fluoroimidazol-1-yl)-1-methoxy-ethyl]-4-(trifluoromethyl)pyridine] | – | – | – | – | – | pest or weed control at 500 ppm (Septoria tritici [1]): 90 to 100%; chromatographic logP [2, 11]: 2.82; pest or weed control at 500 ppm (Puccinia recondita [5]): 90 to 100%; pest or weed control at 500 ppm (Sphaerotheca fuliginea [3]; [10]): 90 to 100%
6 | O=C(Cn1cncc1F)c1ccc(Oc2ccc(Br)cc2)nc1C(F)(F)F [IX-86] | 2.76 | 90 to 100 | 90 to 100 | 90 to 100 | 90 to 100 | –
7 | O=C(Cn1cncc1Cl)c1ccc(Oc2ccc(I)cc2)cc1F [IX-47] | 3.19 | 90 to 100 | 90 to 100 | 90 to 100 | 90 to 100 | –
8 | N#Cc1cncn1CC(=O)c1cnc(Oc2ccc(Cl)cc2)cc1C(F)(F)F [IX-109] | 3.17 | 90 to 100 | 70 to 79 | 90 to 100 | 90 to 100 | –
9 | O=C(Cn1cncc1F)c1ccc(Oc2ccc(C(F)F)cc2)nc1Cl [IX-84] | 2.12 | 90 to 100 | 80 to 89 | 90 to 100 | 90 to 100 | –
10 | N#Cc1cncn1CC(=O)c1ccc(Oc2ccc(I)cc2)cc1Br [IX-66] | 3.8 | 90 to 100 | 90 to 100 | 90 to 100 | 90 to 100 | –
11 | N#Cc1cncn1CC(=O)c1cnc(Oc2ccc(C(F)(F)F)cc2)cc1Cl [IX-114] | 3.29 | 90 to 100 | 90 to 100 | 90 to 100 | 80 to 89 | –
12 | N#Cc1cncn1CC(=O)c1cnc(Oc2ccc(C(F)(F)F)cc2)cc1Br [IX-115] | 3.37 | 90 to 100 | 90 to 100 | 90 to 100 | 90 to 100 | –
13 | O=C(Cn1cncc1F)c1cnc(Oc2ccc(Cl)cc2)cc1Cl [IX-94] | 2.32 | 90 to 100 | 80 to 89 | 90 to 100 | 90 to 100 | –
14 | N#Cc1cncn1CC(=O)c1cnc(Oc2ccc(C(F)(F)F)cc2)cc1C(F)(F)F [IX-89] | 3.42 | 90 to 100 | 80 to 89 | 90 to 100 | 90 to 100 | –
15 | O=C(Cn1cncc1C(F)(F)F)c1ccc(Oc2ccc(Cl)cc2)cc1Cl [IX-57] | 4.03 | 80 to 89 | 90 to 100 | 90 to 100 | 90 to 100 | –
16 | N#Cc1cncn1CC(=O)c1ccc(Oc2ccc(Br)cn2)cc1Cl [IX-77] | 2.94 | 90 to 100 | 90 to 100 | 90 to 100 | 90 to 100 | –
17 | O=C(Cn1cncc1Cl)c1ccc(Oc2ccc(Cl)cc2)cc1F [IX-45] | 2.75 | 70 to 79 | 90 to 100 | 90 to 100 | 90 to 100 | –
18 | N#Cc1cncn1CC(=O)c1cnc(Oc2ccc(Cl)cc2)cc1Br [IX-92] | 3.08 | 80 to 89 | 80 to 89 | 90 to 100 | 90 to 100 | –

Source: patent US20200031778A1, “NOVEL 5-SUBSTITUTED IMIDAZOLYLMETHYL DERIVATIVES” (Bayer CropScience Aktiengesellschaft, priority 2016, published 2020)
